According to ChEMBL document CHEMBL3137667, “[Drug-induced liver injury; fourteenth updated edition of the bibliographic database of liver injuries and related drugs]” (Gastroenterol Clin Biol, 2004):

Legend:
[1] = human
[2] = human, serum
[3] = human; remark: listed apart in the source
[4] = human; remark: listed apart in the source
[5] = human; remark: listed apart in the source
[6] = Highest frequency of acute liver toxicity observed during clinical trials, expressed as a percentage. [column '% AIGUE' in source]; conditions: human
[7] = human; remark: listed apart in the source
[8] = human; remark: listed apart in the source
[9] = human; remark: listed apart in the source
[10] = human; remark: listed apart in the source
[11] = human; remark: listed apart in the source
[12] = human, serum; remark: listed apart in the source
[13] = human, serum, 4383 h
[14] = Highest frequency of moderate liver toxicity observed during clinical trials, expressed as a percentage. [column '% BIOL' in source]; conditions: human
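Wherever Hepatotoxicity (association with vascular disease) is given: count of indexed literature references reporting vascular liver injury in humans, e.g. peliosis hepatitis, hepatic veno-occlusive disease or Budd-Chiari syndrome.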
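Wherever Hepatotoxicity (benign tumour) is given: value is a count of indexed literature references citing a benign tumour confirmed by histopathology.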
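Wherever Hepatotoxicity (choleostasis) is given: human cholestatic liver injury, shown by histopathology or by peak ALT or AST elevation over alkaline phosphatase ratio below 2, value counts indexed literature reports.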
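Wherever Hepatotoxicity (chronic liver disease) is given: chronic liver injury confirmed by histopathology or persistently raised serum aminotransferase activity beyond 6 months, value given as the count of indexed literature references.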
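Wherever Hepatotoxicity (cirrhosis) is given: value is a count of indexed literature references reporting cirrhosis confirmed by histopathology.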
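Wherever Hepatotoxicity (cytolytic) is given: human cytolytic liver injury, shown by histopathology or by a ratio above 5 of peak ALT or AST elevation to alkaline phosphatase elevation, value counts indexed references.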
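Wherever Hepatotoxicity (granulomatous hepatitis) is given: value is a count of indexed literature references reporting granulomatous liver disease confirmed by histopathology.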
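Wherever Hepatotoxicity (malignant tumour) is given: malignant tumour confirmed by histopathology, value gives the count of indexed literature references reporting it.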
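Wherever Hepatotoxicity (severe hepatitis) is given: human clinical data: severe hepatitis, meaning potentially life-threatening liver failure or clinically observed cases, the value counts how many indexed literature references report it.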
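Wherever Hepatotoxicity (steatosis) is given: steatosis confirmed by histopathology, value is the count of indexed references.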

Compound | Hepatotoxicity (benign tumour) [1] | Hepatotoxicity (acute) [2] | Hepatotoxicity (cirrhosis) [3] | Hepatotoxicity (malignant tumour) [4] | Hepatotoxicity (granulomatous hepatitis) [5] | Hepatotoxicity (acute) [6] | Hepatotoxicity (steatosis) [7] | Hepatotoxicity (severe hepatitis) [8] | Hepatotoxicity (cytolytic) [9] | Hepatotoxicity (choleostasis) [10] | Hepatotoxicity (association with vascular disease) [11] | Hepatotoxicity (moderate) [12] | Hepatotoxicity (chronic liver disease) [13] | Hepatotoxicity (moderate) [14] | Hepatotoxicity (acute) ([6]; Liver) | Hepatotoxicity (severe hepatitis) ([8]; Liver) | Hepatotoxicity (moderate) ([14]; Liver)
O=C(Nc1cccc2c(=O)cc(-c3nnn[nH]3)oc12)c1ccc(OCCCCc2ccccc2)cc1 | 0 | 0 | 0 | 0 | 0 | 0% | 0 | 0 | 0 | 0 | 0 | 1 | 0 | 2.1% | – | – | –
O=C(O)Cn1c(=O)n(Cc2ccc(Br)cc2F)c(=O)c2ccc(Cl)cc21 [ZENARESTAT] | 0 | 0 | 0 | 0 | 0 | 0% | 0 | 0 | 0 | 0 | 0 | 1 | 0 | 9.5% | – | – | –
Nc1nc2c(ncn2COCCO)c(=O)[nH]1 [ACYCLOVIR] | 0 | 1 | 0 | 0 | 0 | – | 0 | – | 1 | 0 | 0 | 18 | 0 | – | 1.9% | 0 | 50%
CC(=N)N1CC[C@H](SC2=C(C(=O)O)N3C(=O)[C@H]([C@@H](C)O)[C@H]3C2)C1.O=C(O)CCNC(=O)c1ccccc1 | 0 | 1 | 0 | 0 | 0 | 0% | 0 | 0 | 0 | 1 | 0 | 60 | 0 | 38.5% | – | – | –
DENILEUKIN DIFTITOX | 0 | 1 | 0 | 0 | 0 | 10% | 0 | 0 | 1 | 0 | 0 | 3 | 0 | 45% | – | – | –
CC(O)(P(=O)(O)O)P(=O)(O)O [ETIDRONIC ACID] | 0 | 0 | 0 | 0 | 0 | 0% | 0 | 0 | 0 | 0 | 0 | 1 | 0 | 8.7% | – | – | –
CC#CCC(C)[C@H](O)/C=C/[C@@H]1[C@H]2c3cccc(CCCC(=O)O)c3O[C@H]2C[C@H]1O (some centres undefined) [BERAPROST] | 0 | 0 | 0 | 0 | 0 | 0% | 0 | 0 | 0 | 0 | 0 | 1 | 0 | 13% | – | – | –
O=C(COCCOCCOCC(=O)Nc1c(I)cc(I)c(C(=O)O)c1I)Nc1c(I)cc(I)c(C(=O)O)c1I [IOTROXIC ACID] | 0 | 0 | 0 | 0 | 0 | 0% | 0 | 0 | 0 | 0 | 0 | 1 | 0 | 0% | – | – | –
PALIVIZUMAB | 0 | 0 | 0 | 0 | 0 | 0% | 0 | 0 | 0 | 0 | 0 | 1 | 0 | 3.6% | – | – | –
Cc1oc(=O)oc1CN1CCN(c2cc3c(cc2F)c(=O)c(C(=O)O)c2n3C(C)S2)CC1 (centres undefined) [PRULIFLOXACIN] | 0 | 0 | 0 | 0 | 0 | 0% | 0 | 0 | 0 | 0 | 0 | 25 | 0 | 33.3% | – | – | –
CCCCC(C)(O)C/C=C/[C@H]1[C@H](O)CC(=O)[C@@H]1CCCCCCCO (some centres undefined) [RIOPROSTIL] | 0 | 0 | 0 | 0 | 0 | 0% | 0 | 0 | 0 | 0 | 0 | 1 | 0 | 10% | – | – | –
CCOC(=O)[C@H](CCc1ccccc1)N[C@@H](C)C(=O)N1[C@H](C(=O)O)C[C@@H]2CCC[C@@H]21 | 0 | 1 | 0 | 0 | 0 | 0% | 0 | 0 | 0 | 0 | 0 | 3 | 0 | 1.3% | – | – | –
CNc1nc(N(C)C)nc(N(C)C)n1 [PENTAMETHYL MELAMINE] | 0 | 0 | 0 | 0 | 0 | 0% | 0 | 0 | 0 | 0 | 0 | 1 | 0 | 31% | – | – | –
REVIPARIN SODIUM | 0 | 0 | 0 | 0 | 0 | 0% | 0 | 0 | 0 | 0 | 0 | 1 | 0 | 10.3% | – | – | –
COc1cccc2c1C(=O)c1c(O)c3c(c(O)c1C2=O)C[C@@](O)(C(=O)CO)C[C@@H]3O[C@H]1C[C@H](N)[C@H](O[C@@H]2CCCCO2)[C@H](C)O1 [PIRARUBICIN] | 0 | 0 | 0 | 0 | 0 | 0% | 0 | 0 | 0 | 0 | 0 | 1 | 0 | 1.1% | – | – | –
C/N=C(/Cc1ccc2ccccc2c1)NC [NAPACTADINE] | 0 | 0 | 0 | 0 | 0 | 0% | 0 | 0 | 0 | 0 | 0 | 1 | 0 | 0% | – | – | –
